Source: paper PMC3793931 (PLoS ONE, 2013)
Like-named read-outs stand apart in the source and are kept apart here.

How the values were obtained:
[1] = test system: 5-LO; settings: cited from earlier work
[2] = target: T1, microsomal prostaglandin E2 synthase-1 (mPGES-1) (Homo sapiens, UniProt O14684); assay: biochemical; settings: cell-free, A549 microsomes; n=3; >10 = significant inhibition at 10 µM, >>10 = no significant inhibition at 10 µM
T1 sequence (O14684 1-152): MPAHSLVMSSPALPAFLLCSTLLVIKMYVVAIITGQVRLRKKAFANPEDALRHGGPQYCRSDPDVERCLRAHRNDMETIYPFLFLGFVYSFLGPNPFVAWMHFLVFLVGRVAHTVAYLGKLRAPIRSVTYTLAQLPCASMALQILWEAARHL

[3] = target: T2, 5-LO in PMNL (Homo sapiens, UniProt P09917); assay: cell-based; settings: intact human PMNL, A23187 2.5 µM + 20 µM AA, n=3, >10 = significant inhibition at 10 µM, >>10 = no significant inhibition at 10 µM
T2 sequence (P09917 1-674): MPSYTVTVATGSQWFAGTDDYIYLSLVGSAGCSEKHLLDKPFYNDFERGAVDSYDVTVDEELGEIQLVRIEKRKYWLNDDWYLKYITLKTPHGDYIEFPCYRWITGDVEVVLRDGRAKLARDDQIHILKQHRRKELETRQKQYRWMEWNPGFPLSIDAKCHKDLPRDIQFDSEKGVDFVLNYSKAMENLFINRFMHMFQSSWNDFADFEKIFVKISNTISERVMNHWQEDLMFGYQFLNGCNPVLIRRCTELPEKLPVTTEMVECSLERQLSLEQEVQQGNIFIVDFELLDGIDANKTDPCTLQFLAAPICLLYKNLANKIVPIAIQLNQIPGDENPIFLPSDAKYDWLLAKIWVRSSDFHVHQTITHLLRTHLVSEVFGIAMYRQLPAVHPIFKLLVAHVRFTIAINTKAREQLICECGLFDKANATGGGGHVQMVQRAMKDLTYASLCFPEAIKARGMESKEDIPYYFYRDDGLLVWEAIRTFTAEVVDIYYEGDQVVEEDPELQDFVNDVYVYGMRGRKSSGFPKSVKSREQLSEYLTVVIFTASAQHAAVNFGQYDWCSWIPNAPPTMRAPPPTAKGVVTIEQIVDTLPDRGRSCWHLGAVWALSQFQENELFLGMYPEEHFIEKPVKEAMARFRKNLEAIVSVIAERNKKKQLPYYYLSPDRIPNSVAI

[4] = target: T3, human recombinant 5-LO (Homo sapiens, UniProt P09917); assay: cell-free 5-LO activity assay with purified human recombinant 5-LO
T3 sequence (P09917 1-674): T2 sequence (P09917 1-674)

[5] = test system: NF-κB; assay: NF-κB transactivation, luciferase reporter in TNF-α-stimulated HEK-293/NF-κB-luc cells; format: cell-based; settings: Homo sapiens
Description: The transactivation of a NF-κB-driven luciferase reporter gene was quantified in HEK-293/NF-κB-luc cells (Panomics, RC0014) as previously described. […] Six hours later cells were seeded in 96-well plates and incubated at 37°C and 5% CO2 overnight. On the next day, the medium was exchanged with serum-free DMEM and cells were treated with the respective test compounds dissolved in DMSO. To account for potential unspecific effects of the solvent, the final concentration of DMSO was always adjusted to 0.1%. One hour after treatment the cells were stimulated with 2 ng/mL human recombinant TNF-α for 6 h, and after a lysis step the luminescence of the firefly luciferase and the fluorescence of EGFP were quantified on a GeniosPro plate reader (Tecan; Grödig, Austria). The luciferase signal derived from the NF-κB reporter was normalized by the EGFP-derived fluorescence to account for differences in cell number.
To estimate of cell viability one part of the experiments were performed in cells that were not transfected with pEGFP-C1, but instead stained for 1 h in serum-free medium supplemented with 2 μM Cell Tracker Green CMFDA (C2925; Invitrogen) as described. Since this fluorescent probe is retained inside living cells, it can be used to monitor cell membrane integrity and thus has been broadly used to quantify viable cells. For quantification of NF-κB activity in this experimental setting the luciferase-derived signal from the NF-κB reporter was normalized to the Cell Tracker Green CMFDA-derived fluorescence to account for differences in cell number. Potential differences in cell viability were monitored by comparison of the Cell Tracker Green CMFDA fluorescence of the solvent vehicle treated control cells and cells treated with the indicated compounds.

[6] = test system: COX-1; set-up: method as in PMID 19289158; settings: at 45 µM; cited from earlier work
[7] = test system: COX-2; set-up: method as in PMID 19289158; settings: at 45 µM; cited from earlier work
[8] = target: T4, inhibitor of NF-κB kinase subunit beta (IKK2) (Homo sapiens, UniProt O14920); assay: IKK2 kinase inhibition; format: biochemical; settings: at a concentration of up to 50 μM; data not shown
T4 sequence (O14920 1-756): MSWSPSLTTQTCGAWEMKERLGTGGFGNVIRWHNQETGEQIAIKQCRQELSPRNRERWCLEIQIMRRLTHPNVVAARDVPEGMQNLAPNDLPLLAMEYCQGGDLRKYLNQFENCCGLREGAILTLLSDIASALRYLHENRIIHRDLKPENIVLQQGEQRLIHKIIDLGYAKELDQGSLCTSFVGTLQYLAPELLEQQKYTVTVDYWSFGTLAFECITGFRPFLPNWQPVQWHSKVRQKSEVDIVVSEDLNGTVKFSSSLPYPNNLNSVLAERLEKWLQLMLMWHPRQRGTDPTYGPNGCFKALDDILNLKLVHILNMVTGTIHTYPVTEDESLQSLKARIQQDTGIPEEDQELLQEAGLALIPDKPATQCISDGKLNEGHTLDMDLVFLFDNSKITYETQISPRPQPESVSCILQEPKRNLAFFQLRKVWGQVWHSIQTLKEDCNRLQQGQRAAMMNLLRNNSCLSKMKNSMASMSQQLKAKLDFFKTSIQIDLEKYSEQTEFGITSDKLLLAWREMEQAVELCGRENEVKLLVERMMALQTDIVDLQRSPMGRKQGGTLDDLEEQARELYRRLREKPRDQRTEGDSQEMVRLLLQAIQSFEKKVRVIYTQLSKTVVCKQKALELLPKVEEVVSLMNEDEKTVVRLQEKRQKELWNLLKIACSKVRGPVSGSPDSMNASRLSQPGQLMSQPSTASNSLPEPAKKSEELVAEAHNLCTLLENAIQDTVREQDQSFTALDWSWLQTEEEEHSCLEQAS
Source text: Luciferase reporter gene expression reflects a downstream event of the NF-κB signaling cascade and cannot provide insights into the molecular targets contributing to the observed NF-κB inhibition. Thus, we tested the active compounds 4 and 5 for their potential to suppress the activity of the inhibitor of NF-κB kinase subunit beta (IKK2) as previously described, since it is a prominent upstream target of the NF-κB signaling cascade. […] Accordingly, this kinase is not a direct target of the NF-κB inhibiting depsides 4 and 5.

[9] = test system: leukocyte recruitment to the peritoneum; assay: thioglycollate-induced peritonitis, leukocyte count in peritoneal lavage; format: in vivo, C57BL/6J mice; settings: mouse
Source text: C57BL/6J male, 8-9 weeks old mice were housed in individually ventilated cages and fed with mouse chow and acidified water ad libitum in the mouse facility of the Institute of Vascular Biology and Thrombosis Research (Vienna, Austria). Animal care and all experimental procedures were approved by the Animal Experimental Committee of the Medical University of Vienna and by the Austrian Ministry of Science (license no. BMWF-66.009/0117-II/3b/2012).
The mice of the treatment groups – sterile thioglycollate and perlatolic acid or thioglycollate alone - (3 animals per group) were pre-treated i.p. with 1 mL of 6 µM perlatolic acid or 1 µL of DMSO dissolved in 1 mL of saline. Thirty minutes later the animals were injected i.p. with another 3 mL of saline with or without sterile thioglycollate (4%), and containing again 2 μL DMSO or perlatolic acid. Five hours after the second injection mice were sacrificed by carbon dioxide exposure and peritoneal cavities were washed three times with 2 mL of cold PBS containing 3 mM EDTA and collected as intra-peritoneal lavage. The leukocyte count in the peritoneum of untreated control mice was assessed by lavage. Mice without thioglycollate treatment were used as controls. The volume of the collected lavage was measured and the cell count determined by haemocytometer.

[10] = test system: UACC-62 melanoma cells; settings: cited from earlier work
[11] = test system: B16-F10 melanoma cells; settings: cited from earlier work
[12] = test system: 12-LO; set-up: method as in PMID 15636173; settings: cited from earlier work
[13] = HEK293, TNF-α-stimulated HEK-293/NF-κB-luc cells, n=3, read-out: NF-κB IC50

IC50 [4]	SMILES	IC50 [2]	IC50 [3]	other results
–	COc1cc(C)c(C(=O)Oc2cc(C)c(C(=O)O)c(O)c2C)c(O)c1C=O [baeomycesic acid]	–	–	IC50 ([1]; read-out: 5-LO IC50): 8.3 µM
7.6 µM	CCOC(=O)c1c(C)cc(O)c(C=O)c1O [compound 1, ethyl haematommate]	> 10 µM	> 10 µM	–
> 10 µM	COC(=O)c1c(C)cc(O)c(C)c1O [compound 2, methylbetaorcinolcarboxylate]	> 10 µM	> 10 µM	–
> 10 µM	CCCCCc1cc(OC)cc(O)c1C(=O)O [compound 6, 4-O-metylolivetolcarboxylic acid]	> 10 µM	> 10 µM	–
> 10 µM	CCCCCc1cc(OC)cc(O)c1C(=O)OCC [compound 7, ethyl-4-O-methylolivetolcarboxylate]	> 10 µM	> 10 µM	–
7.2 µM	CCCCCc1cc(O)cc(OC)c1 [compound 9, olivetolmonomethylether]	> 10 µM	> 10 µM	–
–	CCCCCc1cc(O)cc(O)c1 [compound 10, olivetol]	> 10 µM	> 10 µM	–
–	CCCc1cc(O)cc(O)c1 [compound 11, divarinol]	> 10 µM	> 10 µM	–
–	CCCCCc1c2c(cc(O)c1C(=O)O)OC(=O)c1c(cc(OC)cc1C(=O)CCCC)O2 [lobaric acid]	–	–	IC50 ([1]; read-out: 5-LO IC50): ≥ 28.5 µM; IC50 [12]: ≥ 28.5 µM
–	C=C1C(=O)O[C@H]2[C@H]1CC/C(C)=C/CC[C@@]1(C)O[C@@H]21 [parthenolide, reference compound]	–	–	IC50 [5, 13]: 1.5 µM

SMILES	IC50 [4]	IC50 [2]	IC50 [3]	other results
COC(=O)c1c(C)cc(OC(=O)c2c(C)cc(O)c(C=O)c2O)c(C)c1O [compound 3, atranorin]	> 10 µM	> 10 µM	> 10 µM	IC50 [5, 13]: 20 µM; COX-1 inhibition [6]: ~45%; COX-2 inhibition [7]: ~45%; activity against 5-LO [1]: inactive
CCCCCc1cc(OC)cc(O)c1C(=O)Oc1cc(O)c(C(=O)O)c(CCC)c1 [compound 4, imbricaric acid]	3.5 µM	1.9 µM	5.3 µM	IC50 ([5]; HEK293, read-out: NF-κB IC50): 2 µM; IKK2 inhibition [8]: did not inhibit IKK2
CCCCCc1cc(OC(=O)c2c(O)cc(OC)cc2CCCCC)cc(O)c1C(=O)O [compound 5, perlatolic acid]	0.4 µM	0.4 µM	1.8 µM	IC50 [5, 13]: 7 µM; IKK2 inhibition [8]: did not inhibit IKK2; reduction of thioglycollate-induced increase in total leukocyte count in peritoneal lavage fluid ([9]; i.p. co-administration, 5 h after TG injection, n=3, p<0.05): 30-40%; toxic effects observed in the animals ([9]; i.p., acute inflammation model): no hints of toxic effects; cytotoxicity on UACC-62 melanoma cells [10]: moderate selective cytotoxicity; cytotoxicity on B16-F10 melanoma cells [11]: moderate selective cytotoxicity
CCCCCc1cc(O)cc(O)c1C(=O)OCC [compound 8, ethyl olivetolate]	> 10 µM	> 10 µM	6.8 µM	–
